Columns and labels:
Carboplatin = compound: C1CC(C1)(C(=O)[O-])C(=O)[O-].N.N.[Pt+2] [Carboplatin]; details: max 10 µM
In short: (§1)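 Cancer cell lines were plated in 1536-well plates in 7.5 μl of DMEM/F12 or RPMI with 10% FBS and kept 24 hours at 37°C and 5% CO2 before 72 hours of dosing, with final DMSO typically 0.2%. CellTiter-Glo 2.0 luminescence measured viability, scaled between blank-well and DMSO-well means. Dose responses were fitted to a two-parameter logistic curve with a non-linear mixed effects model. This fit gives the single-agent IC50.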

AZD5363 = compound: C1CN(CCC1(C(=O)N[C@@H](CCO)C2=CC=C(C=C2)Cl)N)C3=NC=NC4=C3C=CN4 [AZD5363]; details: max 10 µM
In short: as §1

AZD1775 = compound: C=CCn1c(=O)c2cnc(Nc3ccc(N4CCN(C)CC4)cc3)nc2n1-c1cccc(C(C)(C)O)n1 [AZD1775]; details: max 3 µM
In short: as §1

Trametinib = compound: CC(=O)Nc1cccc(-n2c(=O)n(C3CC3)c(=O)c3c(Nc4ccc(I)cc4F)n(C)c(=O)c(C)c32)c1 [Trametinib]; details: max 1 µM
In short: as §1

Paclitaxel = compound: CC(=O)O[C@H]1C(=O)[C@@]2(C)[C@H]([C@H](OC(=O)c3ccccc3)[C@]3(O)C[C@H](OC(=O)[C@H](O)[C@@H](NC(=O)c4ccccc4)c4ccccc4)C(C)=C1C3(C)C)[C@]1(OC(C)=O)CO[C@@H]1C[C@@H]2O [Paclitaxel]; details: max 3 µM
In short: as §1

Palbociclib = compound: CC(=O)c1c(C)c2cnc(Nc3ccc(N4CCNCC4)cn3)nc2n(C2CCCC2)c1=O [Palbociclib]; details: max 10 µM
In short: as §1

AZD1390 = compound: CC(C)n1c(=O)n(C)c2cnc3cc(F)c(-c4ccc(OCCCN5CCCCC5)nc4)cc3c21 [AZD1390]; details: max 0.3 µM
In short: as §1

Venetoclax = compound: CC1(C)CCC(CN2CCN(c3ccc(C(=O)NS(=O)(=O)c4ccc(NCC5CCOCC5)c([N+](=O)[O-])c4)c(Oc4cnc5[nH]ccc5c4)c3)CC2)=C(c2ccc(Cl)cc2)C1 [Venetoclax]; details: max 1 µM
In short: as §1

Dasatinib = compound: CC1=C(C(=CC=C1)Cl)NC(=O)C2=CN=C(S2)NC3=CC(=NC(=N3)C)N4CCN(CC4)CCO [Dasatinib]; details: max 2 µM
In short: as §1

SG3199 = compound: CC1=CN2[C@@H](C1)C=NC3=CC(=C(C=C3C2=O)OC)OCCCCCOC4=C(C=C5C(=C4)N=C[C@@H]6CC(=CN6C5=O)C)OC [SG3199]; details: max 0.001 µM
In short: as §1

AZD2811 = compound: CCN(CCO)CCCOc1ccc2c(Nc3cc(CC(=O)Nc4cccc(F)c4)[nH]n3)ncnc2c1 [AZD2811]; details: max 1 µM
In short: as §1

SN-38 = compound: CCc1c2c(nc3ccc(O)cc13)-c1cc3c(c(=O)n1C2)COC(=O)[C@]3(O)CC [SN-38]; details: max 0.3 µM
In short: as §1

AZD0156 = compound: CN(C)CCCOc1ccc(-c2ccc3ncc4c(c3c2)n(C2CCOCC2)c(=O)n4C)cn1 [AZD0156]; details: max 3 µM
In short: as §1

AZD4320 = compound: CN(CC[C@H](CSC1=CC=CC=C1)NC2=C(C=C(C=C2)S(=O)(=O)NC(=O)C3=CC=C(C=C3)N4CCC(CC4)[C@H](C5=CC=CC=C5C6=CC=C(C=C6)Cl)O)S(=O)(=O)C(F)(F)F)CCO [AZD4320]; details: max 1 µM
In short: as §1

Alisertib = compound: COc1cc(Nc2ncc3c(n2)-c2ccc(Cl)cc2C(c2c(F)cccc2OC)=NC3)ccc1C(=O)O [Alisertib]; details: max 10 µM
In short: as §1

Etoposide = compound: COc1cc([C@@H]2c3cc4c(cc3[C@@H](O[C@@H]3O[C@@H]5CO[C@@H](C)O[C@H]5[C@H](O)[C@H]3O)[C@H]3COC(=O)[C@H]23)OCO4)cc(OC)c1O [Etoposide]; details: max 10 µM
In short: as §1

Gefitinib = compound: COc1cc2ncnc(Nc3ccc(F)c(Cl)c3)c2cc1OCCCN1CCOCC1 [Gefitinib]; details: max 10 µM
In short: as §1

Prexasertib = compound: COc1cccc(OCCCN)c1-c1cc(Nc2cnc(C#N)cn2)n[nH]1 [Prexasertib]; details: max 1 µM
In short: as §1

Doxorubicin = compound: COc1cccc2c1C(=O)c1c(O)c3c(c(O)c1C2=O)C[C@@](O)(C(=O)CO)C[C@@H]3O[C@H]1C[C@H](N)[C@H](O)[C@H](C)O1 [Doxorubicin]; details: max 1 µM
In short: as §1

AZD5153 = compound: COc1nnc2ccc(N3CCC(c4ccc(OCCN5CCN(C)C(=O)[C@H]5C)cc4)CC3)nn12 [AZD5153]; details: max 1 µM
In short: as §1

Lapatinib = compound: CS(=O)(=O)CCNCc1ccc(-c2ccc3ncnc(Nc4ccc(OCc5cccc(F)c5)c(Cl)c4)c3c2)o1 [Lapatinib]; details: max 10 µM
In short: as §1

AZD8186 = compound: C[C@@H](Nc1cc(F)cc(F)c1)c1cc(C(=O)N(C)C)cc2c(=O)cc(N3CCOCC3)oc12 [AZD8186]; details: max 10 µM
In short: as §1

Crizotinib = compound: C[C@@H](Oc1cc(-c2cnn(C3CCNCC3)c2)cnc1N)c1c(Cl)ccc(F)c1Cl [Crizotinib]; details: max 10 µM
In short: as §1

Savolitinib = compound: C[C@@H](c1ccc2nccn2c1)n1nnc2ncc(-c3cnn(C)c3)nc21 [Savolitinib]; details: max 1 µM
In short: as §1

AZD6738 = compound: C[C@@H]1COCCN1C2=NC(=NC(=C2)C3(CC3)[S@](=N)(=O)C)C4=C5C=CNC5=NC=C4 [AZD6738]; details: max 10 µM
In short: as §1

AZD5991 = compound: Cc1c2c(nn1C)CSCc1cc(n(C)n1)CSc1cc(c3ccccc3c1)OCCCc1c(C(=O)O)n(C)c3c-2c(Cl)ccc13 [AZD5991]; details: max 1 µM
In short: as §1

AZD7648 = compound: Cc1cc2ncnn2cc1Nc1ncc2c(n1)n(C1CCOCC1)c(=O)n2C [AZD7648]; details: max 10 µM
In short: as §1

Taselisib = compound: Cc1nc(-c2cn3c(n2)-c2ccc(-c4cnn(C(C)(C)C(N)=O)c4)cc2OCC3)n(C(C)C)n1 [Taselisib]; details: max 10 µM
In short: as §1

Selumetinib = compound: Cn1cnc2c(F)c(Nc3ccc(Br)cc3Cl)c(C(=O)NOCCO)cc21 [Selumetinib]; details: max 10 µM
In short: as §1

SRA737 = compound: N#Cc1cnc(Nc2cc(NC[C@H]3CNCCO3)c(C(F)(F)F)cn2)cn1 [SRA737]; details: max 10 µM
In short: as §1

MK-2206 = compound: NC1(c2ccc(-c3nc4ccn5c(=O)[nH]nc5c4cc3-c3ccccc3)cc2)CCC1 [MK-2206]; details: max 10 µM
In short: as §1

Gemcitabine = compound: Nc1ccn([C@@H]2O[C@H](CO)[C@@H](O)C2(F)F)c(=O)n1 [Gemcitabine]; details: max 0.3 µM
In short: as §1

[1] = compound: O=C(Nc1ccc2[nH]nc(-c3ccncc3)c2c1)[C@@H]1CCN(CC(=O)N2CCN(c3ccc(-c4ncccn4)cc3)CC2)C1; details: max 5 µM
In short: as §1

Olaparib = compound: O=C(c1cc(Cc2n[nH]c(=O)c3ccccc23)ccc1F)N1CCN(C(=O)C2CC2)CC1 [Olaparib]; details: max 10 µM
In short: as §1

5-Fluorouracil = compound: O=c1[nH]cc(F)c(=O)[nH]1 [5-Fluorouracil]; details: max 20 µM
In short: as §1

Row | Cell Line | IC50, cell viability 72 h (Carboplatin) [µM] | IC50, cell viability 72 h (AZD5363) [µM] | IC50, cell viability 72 h (AZD1775) [µM] | IC50, cell viability 72 h (Trametinib) [µM] | IC50, cell viability 72 h (Paclitaxel) [µM] | IC50, cell viability 72 h (Palbociclib) [µM] | IC50, cell viability 72 h (AZD1390) [µM] | IC50, cell viability 72 h (Venetoclax) [µM] | IC50, cell viability 72 h (Dasatinib) [µM] | IC50, cell viability 72 h (SG3199) [µM] | IC50, cell viability 72 h (AZD2811) [µM] | IC50, cell viability 72 h (SN-38) [µM] | IC50, cell viability 72 h (AZD0156) [µM] | IC50, cell viability 72 h (AZD4320) [µM] | IC50, cell viability 72 h (Alisertib) [µM] | IC50, cell viability 72 h (Etoposide) [µM] | IC50, cell viability 72 h (Gefitinib) [µM] | IC50, cell viability 72 h (Prexasertib) [µM] | IC50, cell viability 72 h (Doxorubicin) [µM] | IC50, cell viability 72 h (AZD5153) [µM] | IC50, cell viability 72 h (Lapatinib) [µM] | IC50, cell viability 72 h (AZD8186) [µM] | IC50, cell viability 72 h (Crizotinib) [µM] | IC50, cell viability 72 h (Savolitinib) [µM] | IC50, cell viability 72 h (AZD6738) [µM] | IC50, cell viability 72 h (AZD5991) [µM] | IC50, cell viability 72 h (AZD7648) [µM] | IC50, cell viability 72 h (Taselisib) [µM] | IC50, cell viability 72 h (Selumetinib) [µM] | IC50, cell viability 72 h (SRA737) [µM] | IC50, cell viability 72 h (MK-2206) [µM] | IC50, cell viability 72 h (Gemcitabine) [µM] | IC50, cell viability 72 h [1] [µM] | IC50, cell viability 72 h (Olaparib) [µM] | IC50, cell viability 72 h (5-Fluorouracil) [µM]
1 | KINGS-1 (Low Grade Glioma) | > 10 | > 10 | > 3 | > 1 | > 3 | > 10 | > 0.3 | > 1 | > 2 | > 0.001 | > 1 | > 0.3 | > 3 | > 1 | > 10 | > 10 | > 10 | > 1 | > 1 | > 1 | > 10 | > 10 | > 10 | > 1 | > 10 | > 1 | > 10 | > 10 | > 10 | > 10 | > 10 | > 0.3 | > 5 | > 10 | > 20
2 | JHH-7 (Hepatocellular Carcinoma) | > 10 | > 10 | 2.61 | > 1 | 0.66 | > 10 | > 0.3 | > 1 | > 2 | > 0.001 | > 1 | > 0.3 | > 3 | > 1 | > 10 | > 10 | > 10 | > 1 | > 1 | > 1 | > 10 | > 10 | > 10 | > 1 | > 10 | > 1 | > 10 | > 10 | > 10 | > 10 | > 10 | > 0.3 | > 5 | > 10 | > 20
3 | NB7 (Neuroblastoma) | > 10 | > 10 | 0.963 | > 1 | 0.268 | > 10 | > 0.3 | > 1 | > 2 | > 0.001 | > 1 | 0.0349 | > 3 | > 1 | 6.06 | 6.52 | > 10 | 0.072 | > 1 | > 1 | > 10 | > 10 | > 10 | > 1 | > 10 | > 1 | > 10 | > 10 | > 10 | > 10 | > 10 | 0.141 | > 5 | > 10 | > 20
4 | OCUB-M (Breast Carcinoma) | > 10 | 0.429 | > 3 | > 1 | 0.00926 | > 10 | > 0.3 | > 1 | > 2 | > 0.001 | 0.0734 | 0.0492 | > 3 | 0.878 | 2.81 | 0.634 | > 10 | 0.463 | 0.241 | > 1 | 4.79 | > 10 | > 10 | > 1 | > 10 | 0.104 | > 10 | 0.109 | > 10 | > 10 | 1.22 | 0.0911 | > 5 | > 10 | > 20
5 | LC4-1 (B-Lymphoblastic Leukemia) | > 10 | > 10 | 0.269 | > 1 | 0.00682 | 4.23 | > 0.3 | 0.00363 | > 2 | > 0.001 | 0.0111 | 0.00226 | > 3 | 0.00254 | 0.529 | 0.355 | > 10 | 0.0118 | 0.0833 | 0.0743 | 6.11 | > 10 | 3 | > 1 | 1.28 | 0.22 | > 10 | > 10 | > 10 | 3.64 | > 10 | 0.0309 | 3.95 | > 10 | 9.63
6 | SNU-C1 (Colorectal Carcinoma) | > 10 | > 10 | > 3 | 0.0751 | > 3 | > 10 | > 0.3 | > 1 | > 2 | > 0.001 | > 1 | > 0.3 | > 3 | > 1 | > 10 | > 10 | > 10 | 0.0735 | > 1 | > 1 | > 10 | > 10 | > 10 | > 1 | > 10 | > 1 | > 10 | 3.36 | 1.26 | > 10 | 9.53 | > 0.3 | 0.802 | > 10 | > 20
